Assay results as given in ChEMBL document CHEMBL1944594, “Synthesis, biological evaluation, and docking studies of tetrahydrofuran- cyclopentanone- and cyclopentanol-based ligands acting at adrenergic α₁- and serotonine 5-HT1A receptors” (J Med Chem, 2012).

How the values were obtained:
[1] = molecular target: T1, Alpha-1A adrenergic receptor (Rattus norvegicus) (UniProt P43140); assay: Antagonist activity at alpha1A adrenoceptor in Wistar rat prostatic vas deferens assessed as inhibition of (-)-noradrenalilne-induced contraction after 30 mins; type: functional, tissue-based
T1 sequence (whole entry): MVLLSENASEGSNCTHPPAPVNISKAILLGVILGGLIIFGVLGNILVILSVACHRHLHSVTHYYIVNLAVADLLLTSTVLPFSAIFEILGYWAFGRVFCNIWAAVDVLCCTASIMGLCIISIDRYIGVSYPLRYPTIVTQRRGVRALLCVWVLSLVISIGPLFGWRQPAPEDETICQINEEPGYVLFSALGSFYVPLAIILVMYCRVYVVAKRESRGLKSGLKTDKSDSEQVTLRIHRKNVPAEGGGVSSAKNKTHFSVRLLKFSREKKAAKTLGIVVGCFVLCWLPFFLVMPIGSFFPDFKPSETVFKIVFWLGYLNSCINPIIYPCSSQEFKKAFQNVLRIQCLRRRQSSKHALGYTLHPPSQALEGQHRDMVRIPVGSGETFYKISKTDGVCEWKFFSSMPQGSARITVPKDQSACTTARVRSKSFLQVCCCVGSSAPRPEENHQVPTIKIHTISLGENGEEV

[2] = molecular target: T2, Alpha-1B adrenergic receptor (Rattus norvegicus) (UniProt P15823); assay: Antagonist activity at Alpha-1B receptor in Wistar rat spleen assessed as inhibition of (-)-phenylephrine-induced contraction after 30 mins; type: functional, tissue-based
T2 sequence (whole entry): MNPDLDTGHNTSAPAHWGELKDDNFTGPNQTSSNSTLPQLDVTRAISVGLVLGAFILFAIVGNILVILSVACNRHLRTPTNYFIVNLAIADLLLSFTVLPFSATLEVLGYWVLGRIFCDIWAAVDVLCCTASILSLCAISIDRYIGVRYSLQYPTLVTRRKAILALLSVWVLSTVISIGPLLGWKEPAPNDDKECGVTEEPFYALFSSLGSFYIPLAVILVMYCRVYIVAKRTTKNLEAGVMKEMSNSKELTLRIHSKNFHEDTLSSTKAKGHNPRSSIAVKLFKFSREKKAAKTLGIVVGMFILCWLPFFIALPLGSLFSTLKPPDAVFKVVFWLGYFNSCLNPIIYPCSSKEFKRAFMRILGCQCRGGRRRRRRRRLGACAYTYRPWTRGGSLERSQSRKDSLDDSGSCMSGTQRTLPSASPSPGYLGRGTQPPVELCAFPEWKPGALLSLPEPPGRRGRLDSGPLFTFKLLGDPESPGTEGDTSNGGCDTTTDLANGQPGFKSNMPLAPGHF

[3] = molecular target: T3, Alpha-1D adrenergic receptor (Rattus norvegicus) (UniProt P23944); assay: Antagonist activity at Alpha-1D adrenoceptor in Wistar rat endothelium denuded thoracic aorta assessed as inhibition of (-)-noradrenalilne-induced contraction after 30 mins; type: functional, tissue-based
T3 sequence (whole entry): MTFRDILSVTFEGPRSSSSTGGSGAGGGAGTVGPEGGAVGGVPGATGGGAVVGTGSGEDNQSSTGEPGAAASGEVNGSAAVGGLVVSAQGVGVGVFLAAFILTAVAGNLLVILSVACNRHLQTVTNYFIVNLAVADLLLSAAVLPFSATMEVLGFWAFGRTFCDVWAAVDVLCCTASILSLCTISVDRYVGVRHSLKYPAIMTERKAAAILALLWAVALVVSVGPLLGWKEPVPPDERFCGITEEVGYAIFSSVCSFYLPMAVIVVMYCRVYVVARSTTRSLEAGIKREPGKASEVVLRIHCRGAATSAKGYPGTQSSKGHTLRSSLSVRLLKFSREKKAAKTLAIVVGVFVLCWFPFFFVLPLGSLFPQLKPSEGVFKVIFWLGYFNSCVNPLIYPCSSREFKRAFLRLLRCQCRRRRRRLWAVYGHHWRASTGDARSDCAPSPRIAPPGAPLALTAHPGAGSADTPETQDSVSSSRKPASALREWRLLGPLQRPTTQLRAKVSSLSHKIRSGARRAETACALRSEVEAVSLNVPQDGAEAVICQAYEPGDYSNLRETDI

[4] = molecular target: T4, 5-hydroxytryptamine receptor 1A (Homo sapiens) (UniProt P08908); assay: Agonist activity at human recombinant 5HT1A receptor expressed in HeLa cells preincubated for 20 mins by [35S]GTPgammaS binding assay relative to 8-OH-DPAT; type: functional, cell-based
T4 sequence (whole entry): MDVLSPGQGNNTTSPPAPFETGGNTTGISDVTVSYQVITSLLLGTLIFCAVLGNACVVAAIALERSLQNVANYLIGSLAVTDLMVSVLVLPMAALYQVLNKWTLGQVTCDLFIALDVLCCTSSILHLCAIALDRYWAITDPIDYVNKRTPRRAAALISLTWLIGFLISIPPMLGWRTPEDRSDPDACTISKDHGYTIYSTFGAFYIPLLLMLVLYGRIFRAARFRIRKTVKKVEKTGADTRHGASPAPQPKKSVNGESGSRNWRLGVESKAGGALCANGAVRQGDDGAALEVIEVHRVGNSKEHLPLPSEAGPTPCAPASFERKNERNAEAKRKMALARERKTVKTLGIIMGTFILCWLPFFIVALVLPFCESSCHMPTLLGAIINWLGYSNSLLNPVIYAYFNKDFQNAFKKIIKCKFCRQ

[5] = molecular target: T4, 5-hydroxytryptamine receptor 1A (Homo sapiens); conditions: HeLa
[6] = molecular target: T5, Alpha-1A adrenergic receptor (Homo sapiens, UniProt P35348); assay: biochemical
T5 sequence (P35348 whole entry): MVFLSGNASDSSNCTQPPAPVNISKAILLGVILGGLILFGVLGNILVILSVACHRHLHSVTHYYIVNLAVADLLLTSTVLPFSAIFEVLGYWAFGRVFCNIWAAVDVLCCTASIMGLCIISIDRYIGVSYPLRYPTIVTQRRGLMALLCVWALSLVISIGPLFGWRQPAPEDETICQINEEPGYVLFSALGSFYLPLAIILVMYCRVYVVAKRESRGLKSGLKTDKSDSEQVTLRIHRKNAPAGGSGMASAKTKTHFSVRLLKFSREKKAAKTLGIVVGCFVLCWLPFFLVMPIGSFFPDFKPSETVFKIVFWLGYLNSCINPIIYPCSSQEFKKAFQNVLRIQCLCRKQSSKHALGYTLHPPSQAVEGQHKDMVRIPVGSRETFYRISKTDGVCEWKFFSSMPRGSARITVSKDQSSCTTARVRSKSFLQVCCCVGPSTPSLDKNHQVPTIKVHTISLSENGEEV
Description: Displacement of [3H]prazosin from human recombinant alpha1A adrenoceptor expressed in CHO cells after 30 mins by liquid scintillation counting

[7] = molecular target: T6, Alpha-1B adrenergic receptor (Homo sapiens, UniProt P35368); assay: biochemical
T6 sequence (P35368 whole entry): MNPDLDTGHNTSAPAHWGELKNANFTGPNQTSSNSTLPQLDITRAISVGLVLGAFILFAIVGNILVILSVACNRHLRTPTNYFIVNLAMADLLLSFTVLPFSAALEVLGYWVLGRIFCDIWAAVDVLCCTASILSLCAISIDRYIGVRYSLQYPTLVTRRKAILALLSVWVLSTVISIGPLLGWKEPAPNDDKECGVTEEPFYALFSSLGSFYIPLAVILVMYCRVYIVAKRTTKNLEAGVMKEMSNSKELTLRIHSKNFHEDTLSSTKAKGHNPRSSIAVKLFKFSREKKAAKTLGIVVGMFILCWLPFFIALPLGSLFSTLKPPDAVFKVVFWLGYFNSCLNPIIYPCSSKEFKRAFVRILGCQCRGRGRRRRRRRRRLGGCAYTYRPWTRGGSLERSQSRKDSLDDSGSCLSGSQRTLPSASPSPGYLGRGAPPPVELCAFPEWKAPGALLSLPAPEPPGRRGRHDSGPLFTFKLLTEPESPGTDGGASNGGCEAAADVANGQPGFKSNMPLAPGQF
Description: Displacement of [3H]prazosin from human recombinant alpha1B adrenoceptor expressed in CHO cells after 30 mins by liquid scintillation counting

[8] = molecular target: T7, Alpha-1D adrenergic receptor (Homo sapiens, UniProt P25100); assay: biochemical
T7 sequence (P25100 whole entry): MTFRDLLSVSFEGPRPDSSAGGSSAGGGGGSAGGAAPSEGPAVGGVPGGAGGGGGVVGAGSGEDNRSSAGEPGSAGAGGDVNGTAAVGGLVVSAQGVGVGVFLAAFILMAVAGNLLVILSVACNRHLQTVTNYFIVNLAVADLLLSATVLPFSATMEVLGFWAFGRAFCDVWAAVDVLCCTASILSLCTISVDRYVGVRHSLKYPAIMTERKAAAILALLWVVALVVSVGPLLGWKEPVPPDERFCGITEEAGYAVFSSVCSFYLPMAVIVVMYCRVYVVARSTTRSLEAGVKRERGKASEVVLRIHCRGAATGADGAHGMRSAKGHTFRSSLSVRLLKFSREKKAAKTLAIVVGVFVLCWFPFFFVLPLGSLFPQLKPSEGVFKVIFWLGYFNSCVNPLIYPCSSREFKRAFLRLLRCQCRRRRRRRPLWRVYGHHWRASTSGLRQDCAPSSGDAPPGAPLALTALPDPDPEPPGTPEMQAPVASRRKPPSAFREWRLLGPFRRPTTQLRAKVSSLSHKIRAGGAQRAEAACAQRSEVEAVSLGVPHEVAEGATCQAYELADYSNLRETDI
Description: Displacement of [3H]prazosin from human recombinant Alpha-1D adrenoceptor expressed in CHO cells after 30 mins by liquid scintillation counting

[9] = molecular target: T8, 5-hydroxytryptamine receptor 1A (Homo sapiens, UniProt P08908); assay: biochemical
T8 sequence (P08908 whole entry): T4 sequence (whole entry)

Structure (SMILES)	pKb [1]	pKb [2]	pKb [3]	Emax [4]	pD2 [5]	Ki [6]	Ki [7]	Ki [8]	Ki [9]
O=C1C(CNCCOc2ccccc2)CCC1(c1ccccc1)c1ccccc1 (centres undefined)	< 5	6.95	6.3	25.5%	7.44	> 1000 nM	> 1000 nM	389 nM	10.5 nM
COc1ccccc1OCCNCC1CCC(c2ccccc2)(c2ccccc2)O1 (centres undefined)	7.24	6.92	8.09	53.4%	9.04	26.9 nM	39.8 nM	6.31 nM	0.832 nM
COc1ccccc1OCCNCC1COC(c2ccccc2)(c2ccccc2)O1 (centres undefined)	7.53	7.36	8.65	31.6%	7.36				
c1ccc(OCCNCC2COC(c3ccccc3)(c3ccccc3)O2)cc1 (centres undefined)	6.16	5.86	8.37	24.4%	8.8				
O[C@@H]1[C@@H](CNCCOc2ccccc2)CCC1(c1ccccc1)c1ccccc1 (relative stereo)	5.43	6.67	6.86	64.9%	7.94	> 1000 nM	288 nM	93.3 nM	9.55 nM
O[C@@H]1[C@H](CNCCOc2ccccc2)CCC1(c1ccccc1)c1ccccc1 (relative stereo)	5.23	6.26	6.88	46.5%	7.81	> 1000 nM	> 1000 nM	> 1000 nM	9.33 nM
c1ccc(OCCNCC2CCC(c3ccccc3)(c3ccccc3)O2)cc1 (centres undefined)	6.26	6.2	7.21			53.7 nM	123 nM	31.6 nM	2 nM

Results, then the compound that gave them:

pKb [1]	pKb [2]	pKb [3]	Emax [4]	pD2 [5]	Ki [6]	Ki [7]	Ki [8]	Ki [9]	Structure (SMILES)
5.62	7.25	7.21	47.1%	9.03	38.9 nM	166 nM	67.6 nM	0.562 nM	COc1ccccc1N1CCN(C[C@H]2CCC(c3ccccc3)(c3ccccc3)[C@H]2O)CC1 (relative stereo)
	7.48			9.27					COc1ccccc1N1CCN(CCN2C(=O)CC3(CCCC3)CC2=O)CC1
7.65	6.85	7.5			0.646 nM	8.91 nM	3.89 nM	4.37 nM	COc1ccccc1N1CCN(CC2CCC(c3ccccc3)(c3ccccc3)O2)CC1 (centres undefined)
6.39	7.14	6.82	37.3%	8.74	44.7 nM	245 nM	67.6 nM	0.794 nM	COc1ccccc1N1CCN(C[C@H]2CCC(c3ccccc3)(c3ccccc3)[C@@H]2O)CC1
8.24	6.69	8.14	16.2%	8.3	0.263 nM	6.76 nM	0.813 nM	22.9 nM	COc1ccccc1N1CCN(CC2COC(c3ccccc3)(c3ccccc3)O2)CC1 (centres undefined)
6.28	7.54	6.43			39.8 nM	141 nM	155 nM	3.47 nM	COc1ccccc1N1CCN(CC2CCC(c3ccccc3)(c3ccccc3)C2=O)CC1 (centres undefined)
6.57	7.7	8.42	64.1%	8.96	110 nM	74.1 nM	5.75 nM	0.324 nM	COc1ccccc1OCCNC[C@H]1CCC(c2ccccc2)(c2ccccc2)[C@@H]1O (relative stereo)
6.39	6.92	6.54	39.4%	8.37	> 1000 nM	> 1000 nM	141 nM	3.47 nM	COc1ccccc1OCCNCC1CCC(c2ccccc2)(c2ccccc2)C1=O (centres undefined)
